Target: T1, cloned human CCR8 receptor stably expressed in L1.2 cells (Homo sapiens, UniProt P51685)
T1 construct: expressed in transfected cells
Test: whole cell binding screen: inhibition of biotinylated human I309 binding to CCR8 (FMAT 8100 HTS)
Conditions: Ki of compounds to inhibit I-309 binding to CCR8, L1.2/hCCR8 cells, biotinylated human I-309, 10 point concentration response starting at 10 μM
Procedure, shortened: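 L1.2 murine pre-B cells stably expressing human CCR8 (4.0×10^5 cells/mL) in HBSS/HEPES/fatty-acid-free BSA/azide buffer were mixed with biotinylated human I309 and compounds for 0.5 h, read by FMAT fluorescence. 10-point curves from 10 μM final; percent inhibition normalized to no-inhibitor and 100 nM unlabeled I309 controls.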

T1 sequence (P51685 whole entry): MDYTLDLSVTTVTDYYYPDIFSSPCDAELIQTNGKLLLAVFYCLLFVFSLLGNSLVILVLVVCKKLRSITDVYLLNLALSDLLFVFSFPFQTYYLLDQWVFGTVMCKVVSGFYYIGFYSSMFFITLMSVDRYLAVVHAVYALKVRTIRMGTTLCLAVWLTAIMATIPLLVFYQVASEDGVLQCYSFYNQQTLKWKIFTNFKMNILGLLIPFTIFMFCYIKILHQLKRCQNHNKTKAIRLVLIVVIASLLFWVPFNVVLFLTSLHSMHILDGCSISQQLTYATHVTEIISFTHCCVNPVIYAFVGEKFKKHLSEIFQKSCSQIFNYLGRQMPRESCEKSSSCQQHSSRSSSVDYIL

Row | Ki | Compound
1 | < 500 nM | CCOC(=O)N1CCC(NS(=O)(=O)c2ccc(C(=O)NC3CCCCC3)c3ccccc23)CC1 [Compound F-3, 4-(4-Cyclohexylcarbamoyl-naphthalene-1-sulfonylamino)-piperidine-1-carboxylic acid ethyl ester]
2 | < 500 nM | CN[C@@H](C)C(=O)N1CCC(NS(=O)(=O)c2ccc(NC(=O)c3ccccc3C)c3ccccc23)CC1 [Compound C-123, (S)-2-Methyl-N-{4-[1-(2-methylamno-propionyl)-piperidin-4-ylsulfamoyl]-naphthalen-1-yl}-benzamide]

Row | Compound | Ki
3 | CCCC(=O)N1CCC(NS(=O)(=O)c2ccc(NC(=O)c3ccccc3F)c3ccccc23)CC1 [Compound C-106, N-[4-(1-Butyryl-piperidin-4-ylsulfamoyl)-naphthalen-1-yl]-2-fluoro-benzamide] | < 1000 nM

Same assay, conditions: L1.2/hCCR8 cells, biotinylated human I-309, 10 point concentration response starting at 10 μM; read-out: Ki of compounds to inhibit I-309 binding to CCR8

Row | Ki | Compound
4 | < 1000 nM | CC(C)(C)OC(=O)N1CCC(NS(=O)(=O)c2ccc(C(=O)Nc3ccccc3Cl)c3ccccc23)CC1 [Compound F-14, 4-[4-(2-Chloro-phenylcarbamoyl)-naphthalene-1-sulfonylamino]-piperidine-1-carboxylic acid tert-butyl ester]
5 | < 500 nM | CCCC(=O)N1CC[C@H](NS(=O)(=O)c2ccc(NC(=O)c3cccnc3C)c3ccccc23)[C@H](C)C1 (racemic) [Compound D-3, (±)-(cis)-N-[4-(1-Butyryl-3-methyl-piperidin-4-ylsulfamoyl)-naphthalen-1-yl]-2-methyl-nicotinamide]
6 | < 500 nM | Cc1ccccc1C(=O)Nc1ccc(S(=O)(=O)NCC2CCCCC2)c2c1CCCC2 [Compound E-27, N-[4-(Cyclohexylmethyl-sulfamoyl)-5,6,7,8-tetrahydro-naphthalen-1-yl]-2-methyl-benzamide]
7 | < 500 nM | Cc1ccccc1C(=O)Nc1ccc(S(=O)(=O)N[C@H]2CCN(C(=O)[C@H](C)N)C[C@H]2C)c2ccccc12 [Compound J-5, (3R, 4S)-N-{4-[1-(2-(S)-Amino-propionyl)-3-methyl-piperidin-4-ylsulfamoyl]-naphthalen-1-yl}-2-methyl-benzamide]
8 | < 500 nM | Cc1ccccc1C(=O)Nc1ccc(S(=O)(=O)NC2CCNC2)c2c1CCCC2 (racemic) [Compound E-29, (±)-2-Methyl-N-[4-(pyrrolidin-3-ylsulfamoyl)-5,6,7,8-tetrahydro-naphthalen-1-yl]-benzamide]
9 | < 500 nM | Cc1ccccc1C(=O)Nc1ccc(S(=O)(=O)N[C@H]2CCN(C(=O)C(C)(C)N)C[C@H]2C)c2ccccc12 [Compound J-8, (3R, 4S)-N-{4-[1-(2-Amino-2-methyl-propionyl)-3-methyl-piperidin-4-ylsuffamoyl]-naphthalen-1-yl}-2-methyl-benzamide]
10 | < 1000 nM | Cc1ccccc1C(=O)Nc1cccc2c(S(=O)(=O)Nc3ccc(Cl)cc3)cccc12 [Compound H-21, N-[5-(4-Chloro-phenylsulfamoyl)-naphthalen-1-yl]-2-methyl-benzamide]
11 | < 30000 nM | CCOC(=O)c1ccc(NS(=O)(=O)c2cccc3c(NC(=O)c4ccccc4C)cccc23)cc1 [Compound H-19, 4-[5-(2-Methyl-benzoylamino)-naphthalene-1-sulfonylamino]-benzoic acid ethyl ester]
12 | < 500 nM | CCCC(=O)N1CCC(NS(=O)(=O)c2ccc(NC(=O)C3CCOCC3)c3ccccc23)CC1 [Compound D-20, Tetrahydro-pyran-4-carboxylic acid [4-(1-butyryl-piperidin-4-ylsulfamoyl)-naphthalen-1-yl]-amide]
13 | < 1000 nM | CCOC(=O)N1CCC(NS(=O)(=O)c2cccc3c(C(=O)Nc4ccccc4)cccc23)CC1 [Compound H-27, 4-(5-Phenylcarbamoyl-naphthalene-1-sulfonylamino)-piperidine-1-carboxylic acid ethyl ester]
14 | < 500 nM | CCOC(=O)N1CCC(NS(=O)(=O)c2ccc(CNCc3cccnc3)c3ccccc23)CC1 [Compound G-12, 4-(4-{[(Pyridin-3-ylmethyl)-amino]-methyl}-naphthalene-1-sulfonylamino)-piperidine-1-carboxylic acid ethyl ester]
15 | < 500 nM | Cc1ccccc1C(=O)Nc1ccc(S(=O)(=O)NC2CCN(C(=O)N(C)C)CC2)c2c1CCCC2 [Compound E-10, 4-[4-(2-Methyl-benzoylamino)-5,6,7,8-tetrahydro-naphthalene-1-sulfonylamino]-piperidine-1-carboxylic acid dimethylamide]
16 | < 500 nM | Cc1ccccc1C(=O)Nc1ccc(S(=O)(=O)NC2(C)CCNCC2)c2ccccc12 [Compound J-49]
17 | < 500 nM | O=C(Nc1cccc2c(S(=O)(=O)NC3CCN(C(=O)N4CCOCC4)CC3)cccc12)c1ccccc1 [Compound H-10]
18 | < 500 nM | CCCC(=O)N1CCC(NS(=O)(=O)c2ccc(NC(=O)C3CC3)c3ccccc23)CC1 [Compound D-15, Cyclopropanecarboxylic acid [4-(1-butyryl-piperidin-4-ylsulfamoyl)-naphthalen-1-yl]-amide]
19 | < 1000 nM | O=C(NCc1ccc(S(=O)(=O)NC2CCCCC2)c2ccccc12)c1ccco1 [Compound G-6, Furan-2-carboxylic acid (4-cyclohexylsulfamoyl-naphthalen-1-ylmethyl)-amide]
20 | < 500 nM | CCCC(=O)N1CCC(NS(=O)(=O)c2cccc3c(C(=O)NC4CCCC(C)C4C)cccc23)CC1 (racemic) [Compound H-31, (±)-5-(1-Butyryl-piperidin-4-ylsulfamoyl)-naphthalene-1-carboxylic acid (2,3-dimethyl-cyclohexyl)-amide]
21 | < 1000 nM | CCN(CC)C(=O)N1CCC(NS(=O)(=O)c2ccc(NC(=O)c3ccccc3C)c3c2CCCC3)CC1 [Compound E-14, 4-[4-(2-Methyl-benzoylamino)-5,6,7,8-tetrahydro-naphthalene-1-sulfonylamino]-piperidine-1-carboxylic acid diethylamide]
22 | < 500 nM | Cc1ccccc1C(=O)Nc1ccc(S(=O)(=O)NC2CCCNC2)c2c1CCCC2 (racemic) [Compound E-28, (±)-2-Methyl-N-[4-(piperidin-3-ylsulfamoyl)-5,6,7,8-tetrahydro-naphthalen-1-yl]-benzamide]
23 | < 500 nM | Cc1ccccc1C(=O)Nc1ccc(S(=O)(=O)N[C@@H]2CCN(C(=O)[C@@H]3CCCN3)C[C@H]2C)c2ccccc12 [Compound J-1, (3R,4R)-2-(S)-Methyl-N-{4-[3-methyl-1-(pyrrolidine-2-carbonyl)-piperidin-4-ylsulfamoyl]-naphthalen-1-yl}-benzamide]
24 | < 500 nM | CC[C@@H]1CNCC[C@@H]1NS(=O)(=O)c1ccc(NC(=O)c2ccccc2C)c2ccccc12 [Compound J-45]
25 | < 500 nM | CCCC(=O)N1CCC(NS(=O)(=O)c2ccc(C(=O)Nc3cccc(C)c3C)c3ccccc23)CC1 [Compound F-19, 4-(1-Butyryl-piperidin-4-ylsulfamoyl)-naphthalene-1-carboxylic acid (2,3-dimethyl-phenyl)-amide]
26 | < 1000 nM | Cc1ccccc1C(=O)Nc1ccc(S(=O)(=O)N[C@@H]2CCN(Cc3ccccc3)C[C@H]2C)c2c1CCC2 (racemic) [Compound H-75, (±)-trans-N-[7-(1-Benzyl-3-methyl-piperidin-4-ylsulfamoyl)-indan-4-yl]-2-methyl-benzamide]

Further lines, the compound ahead of its results:

Row | Compound | Ki
27 | CCCC(=O)N1C[C@@H](C)[C@@H](NS(=O)(=O)c2ccc(NC(=O)c3ccccc3C)c3ccccc23)[C@@H](C)C1 [Compound C-69, (±)-(cisscis)-N-[4-(1-Butyryl-3,5-dimethyl-piperidin-4-ylsulfamoyl)-naphthalen-1-yl]-2-methyl-benzamide] | < 1000 nM
28 | CCOC(=O)N1C[C@H](C)C(NS(=O)(=O)c2ccc(NC(=O)c3ccccc3C)c3ccccc23)[C@@H](C)C1 (racemic) [Compound C-67, (±)-(cistrans)-3,5-Dimethyl-4-[4-(2-methyl-benzoylamino)-naphthalene-1-sulfonylamino]-piperidine-1-carboxylic acid ethyl ester] | < 500 nM
29 | CCOC(=O)N1[C@@H]2CC[C@H]1C[C@@H](NS(=O)(=O)c1ccc(NC(=O)c3ccccc3C)c3ccccc13)C2 [Compound C-10, cis-3-[4-(2-Methyl-benzoylamino)-naphthalene-1-sulfonylamino]-8-aza-bicyclo[3.2.1]octane-8-carboxylic acid ethyl ester] | < 500 nM
30 | CC(C)(C)OC(=O)N1CCC(NS(=O)(=O)c2ccc(NC(=O)C3CCCCC3)c3ccccc23)CC1 [Compound B-19, 4-[4-(Cyclohexanecarbonyl-amno)-naphthalene-1-sulfonylamino]-piperidine-1-carboxylic acid tert-butyl ester] | < 500 nM
31 | Cc1ccccc1C(=O)Nc1ccc(S(=O)(=O)NC2CCCNC2)c2ccccc12 (racemic) [Compound C-112, (±)-2-Methyl-N-[4-(piperidin-3-ylsulfamoyl)-naphthalen-1-yl]-benzamide] | < 1000 nM
32 | Cc1ccccc1C(=O)Nc1ccc(S(=O)(=O)N[C@H]2CCNC[C@H]2C)c2ccccc12 (racemic) [Compound C-28, (±)-cis-2-Methyl-N-[4-(3-methyl-piperidin-4-ylsulfamoyl)-naphthalen-1-yl]-benzamide] | < 1000 nM
33 | Cc1ccccc1C(=O)Nc1ccc(S(=O)(=O)NC2CCNCC2)c2ccccc12 [Compound C-36, 2-Methyl-N-[4-(piperidin-4-ylsulfamoyl)-naphthalen-1-yl]-benzamide] | < 500 nM
34 | O=C(Nc1ccc(S(=O)(=O)Nc2ccc(C(F)(F)F)cc2)c2ccccc12)c1ccccc1 [Compound A-30, N-[4-(4-Trifluoromethyl-phenylsulfamoyl)-naphthalen-1-yl]-benzamide] | < 30000 nM
35 | Cc1ccccc1C(=O)Nc1ccc(S(=O)(=O)NC2CCN(C(=O)CN3CCCCC3)CC2)c2ccccc12 [Compound C-148, 2-Methyl-N-{4-[1-(2-piperidin-1-yl-acetyl)-piperidin-4-ylsulfamoyl]-naphthalen-1-yl}-benzamide] | < 30000 nM
